From paper PMC4657912, “Purification and Characterization of a Novel NAD(P)^+-Farnesol Dehydrogenase from Polygonum minus Leaves” (PLoS ONE, 2015)

Columns and labels:
[1] = tested on: T1, P. minus farnesol dehydrogenase; NAD(P)+-dependent farnesol dehydrogenase; test: NADH formation at […] nm, Lineweaver-Burk; format: biochemical, Persicaria minor; conditions: 100 mM glycine-NaOH pH 9.5, 35 C, read-out: K m value
T1 construct: native, purified from leaves; gene not cloned

[2] = tested on: T1, P. minus farnesol dehydrogenase; NAD(P)+-dependent farnesol dehydrogenase; test: NADPH formation at […] nm, Lineweaver-Burk; format: biochemical, Persicaria minor; conditions: 1.0 mM trans,trans-farnesol (standard assay), 100 mM glycine-NaOH pH 9.5, 35 C; substrate range stated 0.5-1.5 mM, extrapolated; read-out: K m value
[3] = 1.0 mM NAD+ (standard assay), oxidation

Compound	Km [1, 3] [µM]	also measured
CC(C)=CCC/C(C)=C\CC/C(C)=C\CO [Cis, cis-farnesol]	420	–
C=CC(C)(O)CCC=C(C)CCC=C(C)C (stereo not shown) [nerolidol]	1000	–
C=C(C)C1CC=C(C)C(O)C1 (stereo not shown) [Carveol]	710	–
OC/C=C/c1ccccc1 [Cinnamyl alcohol]	1040	–
CC(C)=CCC/C(C)=C/CO [Geraniol, (trans)-3,7-dimethyl-2,6-octadien-1-ol]	–	Km ([1]; 1.0 mM NAD+ (standard assay), oxidation, substrate range 0.5-1.5 mM, extrapolated): 12500 µM
NC(=O)c1ccc[n+]([C@@H]2O[C@H](COP(=O)(O)OP(=O)(O)OC[C@H]3O[C@@H](n4cnc5c(N)ncnc54)[C@H](O)[C@@H]3O)[C@@H](O)[C@H]2O)c1 [NAD^+]	–	Km ([1]; 1.0 mM trans,trans-farnesol (standard assay)): 740 µM
NC(=O)c1ccc[n+]([C@@H]2O[C@H](COP(=O)(O)OP(=O)(O)OC[C@H]3O[C@@H](n4cnc5c(N)ncnc54)[C@H](OP(=O)(O)O)[C@@H]3O)[C@@H](O)[C@H]2O)c1 [NADP^+]	–	Km [2]: 40000 µM
C=C(C)[C@@H]1CC=C(CO)CC1 [(S)-Perillyl alcohol]	770	–
CC(C)=CCC/C(C)=C/CC/C(C)=C\CO [Cis, trans-farnesol]	330	–
CC(C)=CCC/C(C)=C/CC/C(C)=C/CO [Trans, trans-farnesol, trans,trans-3,7,11-trimethyl-2,6,10-dodecatrien-1-ol]	170	–
